Test results as given in patent US20260167629A1, “NOVEL INDAZOLE DERIVATIVE OR PHARMACEUTICALLY ACCEPTABLE SALT THEREOF, AND USE THEREOF” (KOREA UNIVERSITY RESEARCH AND BUSINESS FOUNDATION, priority 2022, published 2026).

Legend:
leukemia cell line HL-60 = experiment: MTS cell viability assay in HL-60; assay type: cell-based; details: HL-60, 0.1-20 μM, 72 hours
Description: (§1) Specifically, cells were attached to 96 well plates for 24 hours, and then treated with the indazole derivatives for 72 hours. Thereafter, the cells were chromogenized with MTS for 4 hours, and the absorbance was measured at 490 nm using a Spectramax Plus384 microplate analyzer. The significance between the control group and the experimental group was verified using an unpaired Students t-test (*p<0.01; DMSO control vs indazole series).
(§2) In addition to the breast cancer cell line, a leukemia cell line HL-60, a liver cancer cell line HepG2, a colorectal cancer cell line HCT116, a prostate cancer cell line Du145, an ovarian cancer cell line SKOV3, and non-small cell lung cancer cell lines NCI-H1299 and A549 were treated with compound 11k (formula 1-7) at concentrations of 0 (DMSO), 0.1, 0.5, 1, 2, 5, 10, and 20 μM, respectively, for 72 hours, and then cell viability was measured using the MTS assay technique as explained by the description of Experimental Example 1. The significance between the control group and the experimental group was verified using an unpaired Students t-test (*p<0.01; DMSO control vs compound 11k).

[1] = test system: liver cancer cell line HepG2; experiment: MTS cell viability assay in HepG2; assay type: cell-based; details: HepG2, 0.1-20 μM, 72 hours
Description: as §1, §2

[2] = test system: colorectal cancer cell line HCT116; experiment: MTS cell viability assay in HCT116; assay type: cell-based; details: HCT116, 0.1-20 μM, 72 hours
Description: as §1, §2

[3] = test system: JIMT-1 breast cancer cell line xenograft; experiment: Tumor growth in JIMT-1 xenograft mouse model, combination with paclitaxel; assay type: in vivo, Balb/c nude mice
Description: This experiment was performed in an in vivo environment using a xenograft mouse model transplanted with the JIMT-1 breast cancer cell line.
6-week-old mice (Balb/c nude mice) were purchased and raised in an environment where they could freely access food and water. The mice were acclimated for more than 7 days, and then were transplanted with tumor cells. Tumor cells were injected subcutaneously into the mammary gland tissue of JIMT-1 breast cancer cells at a density of 3×10^6 cells/mL per individual, and when the tumor reached a size of 50 to 100 mm^3, the indazole derivative of the present disclosure was administered intraperitoneally, and the tumor growth was measured.

In the case of `COc1c(C(=O)Nc2ccc3c(C)nn(CCC4CCN(C)CC4)c3c2)ccc2c1C=CC(C)(C)O2` [compound 11k, 5-Methoxy-2,2-dimethyl-N-(3-methyl-1-(2-(1-methylpiperidin-4-yl)ethyl)-1H-indazol-6-yl)-2H-chromene-6-carboxamide], the cell viability (leukemia cell line HL-60) is reported as “effective in inhibiting cell viability”, the cell viability [1] is reported as “effective in inhibiting cell viability” and the cell viability [2] is reported as “effective in inhibiting cell viability”. For the same compound, the tumor weight ([3]; measured after tumor resection) was 500 mg and the tumor volume ([3]; measured at 40 days after drug administration) was 786.392 mm^3.
